Test results from the supplement of paper PMC10307832.

Key:
Assay in all cases: relative viability (nuclei count vs DMSO), 5 days (fraction); higher = more cells survive
[1] = compound: Nc1ncn([C@H]2C[C@H](O)[C@@H](CO)O2)c(=O)n1 [Decitabine] + Cc1nc(NC(=O)N2CCC[C@H]2C(N)=O)sc1-c1ccnc(C(C)(C)C(F)(F)F)c1 [Alpelisib] (partner 2 µM)
Summary of the method: (§1)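 Values are medians from duplicate plates. Each reflects relative viability, defined as the nuclei count of treated wells over that of vehicle wells. Lung cancer cell lines in 1536-well plates were pin-tool dosed one day after seeding with one drug alone or with a fixed anchor-drug dose plus five library-drug doses (not always all listed) in √10 steps, then fixed, stained and imaged at 4× after 5 days.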

[2] = compound: COc1cc2c(Oc3ccc4[nH]c(C)cc4c3F)ncnc2cc1OCCCN1CCCC1 [Cediranib] + Cc1nc(Nc2ncc(C(=O)Nc3c(C)cccc3Cl)s2)cc(N2CCN(CCO)CC2)n1 [Dasatinib] (partner 0.075 µM)
Summary of the method: as §1

[3] = compound: O=C(C[C@H]1NCCC[C@@H]1O)Cn1cnc2cc(Br)c(Cl)cc2c1=O (racemic) [Halofuginone] + Nc1ncn([C@H]2C[C@H](O)[C@@H](CO)O2)c(=O)n1 [Decitabine] (partner 2 µM)
Summary of the method: as §1

[4] = compound: O=C(C[C@H]1NCCC[C@@H]1O)Cn1cnc2cc(Br)c(Cl)cc2c1=O (racemic) [Halofuginone] + COc1cc2c(Oc3ccc(NC(=O)C4(C(=O)Nc5ccc(F)cc5)CC4)cc3F)ccnc2cc1OCCCN1CCOCC1 [Foretinib] (partner 0.25 µM)
Summary of the method: as §1

Row | Cell Line | relative viability ([1]; first compound 0.04 µM) | relative viability ([1]; first compound 0.1265 µM) | relative viability ([1]; first compound 0.4 µM) | relative viability ([1]; first compound 1.265 µM) | relative viability ([1]; first compound 4 µM) | relative viability ([2]; first compound 0.04 µM) | relative viability ([2]; first compound 0.1265 µM) | relative viability ([2]; first compound 0.4 µM) | relative viability ([2]; first compound 1.265 µM) | relative viability ([2]; first compound 4 µM) | relative viability ([3]; first compound 0.001 µM) | relative viability ([3]; first compound 0.003162 µM) | relative viability ([3]; first compound 0.01 µM) | relative viability ([3]; first compound 0.03162 µM) | relative viability ([3]; first compound 0.1 µM) | relative viability ([4]; first compound 0.001 µM) | relative viability ([4]; first compound 0.003162 µM) | relative viability ([4]; first compound 0.01 µM) | relative viability ([4]; first compound 0.03162 µM) | relative viability ([4]; first compound 0.1 µM)
1 | LOU-NH91 | 0.484 | 0.673 | 0.688 | 0.592 | 0.61 | 0.522 | 0.78 | 0.51 | 0.495 | 0.552 | 0.809 | 0.818 | 0.787 | 0.802 | 0.817 | 0.985 | 0.917 | 0.887 | 0.925 | 0.949
2 | H3255 | 0.222 | 0.579 | 0.358 | 0.428 | 0.436 | 0.409 | – | 0.332 | 0.302 | 0.36 | 0.593 | 0.682 | 0.567 | 0.628 | 0.517 | 0.748 | 0.849 | 0.825 | 1.01 | 0.856
3 | NCI-H1395 | 0.821 | 0.776 | 0.786 | 0.518 | 0.631 | 0.44 | 0.45 | 0.37 | 0.374 | 0.405 | 0.662 | 0.69 | 0.751 | 0.631 | 0.519 | 1.02 | 0.934 | 0.925 | 1.06 | 0.879
4 | LC-2-ad | 0.726 | 0.742 | 0.681 | 0.378 | 0.304 | 0.555 | 0.654 | 0.427 | 0.496 | 0.403 | 0.7 | 0.857 | 0.806 | 0.892 | 0.687 | 0.928 | 0.973 | 0.866 | 1 | 0.497
5 | NCI-H838 | 0.715 | 0.461 | 0.409 | 0.396 | 0.276 | 0.292 | 0.268 | 0.285 | 0.241 | 0.315 | 0.502 | 0.465 | 0.445 | 0.458 | 0.281 | 1.18 | 1.02 | 1 | 0.681 | 0.395
6 | LCLC-97TM1 | 0.172 | 0.151 | 0.14 | 0.129 | 0.112 | 0.893 | 0.81 | 0.799 | 0.876 | 0.834 | 0.263 | 0.222 | 0.203 | 0.19 | 0.227 | 1.02 | 0.947 | 0.935 | 1.02 | 0.935
7 | HCC-15 | 0.799 | 0.773 | 0.441 | 0.438 | 0.302 | 0.662 | – | 0.585 | 0.707 | 0.608 | 0.647 | 0.71 | 0.747 | 0.676 | 0.482 | 1.02 | 1.1 | 1.05 | 0.967 | 0.787
8 | NCI-H727 | 0.453 | 0.405 | 0.333 | 0.35 | 0.401 | – | – | 0.358 | 0.337 | 0.367 | 0.85 | 0.764 | 0.954 | 0.944 | 0.723 | 1.11 | 0.884 | 0.732 | 0.738 | 0.527
